A value given as a limit tells only on which side of the number the result lay.

The test system of data set [1] is Staphylococcus aureus. As to the kind of experiment: Antibacterial activity against Staphylococcus aureus ATCC 29213 assessed as inhibition of bacterial growth incubated for 18 to 24 hrs by broth microdilution method. Format: functional. The settings on record: time 18-24 hrs. Background: In broth dilution the organism is exposed to a series of concentrations in liquid medium.

Data set [2] in a line: Cytotoxicity against human HepG2 cells assessed as reduction in cell viability incubated for 48 hrs by CCK8 assay. Format: toxicity, cell-based. (Tetrazolium assays rely on reduction of a dye to a coloured formazan, in cell work by metabolically active cells.)
Data set [3] can be described thus: Cytotoxicity against HUVEC cells assessed as reduction in cell viability incubated for 48 hrs by CCK8 assay. The settings on record: human. Format: toxicity, cell-based.
A short description of data set [4]: Selectivity index, ratio of CC50 for cytotoxicity against human HepG2 cells to MIC for antibacterial activity against Staphylococcus aureus ATCC 29213. Format: toxicity, cell-based. As to conditions: read-out: Selectivity Index.
Data set [5] can be described thus: Selectivity index, ratio of CC50 for cytotoxicity against HUVEC cells to MIC for antibacterial activity against Staphylococcus aureus ATCC 29213. Format: toxicity, cell-based. As to conditions: human, read-out: Selectivity Index.
In data set [6] the target is DNA gyrase (Staphylococcus aureus, UniProt P0A0K8+P20831). Description: Inhibition of Staphylococcus aureus DNA gyrase ATP hydrolysis activity using pBR322 DNA as substrate incubated for 30 mins in presence of ATP by ADP-Glo reagent based assay. Format: protein-complex assay. (In ADP-Glo the light output rises with the ADP produced.)
Sequence of DNA gyrase (P0A0K8 whole entry): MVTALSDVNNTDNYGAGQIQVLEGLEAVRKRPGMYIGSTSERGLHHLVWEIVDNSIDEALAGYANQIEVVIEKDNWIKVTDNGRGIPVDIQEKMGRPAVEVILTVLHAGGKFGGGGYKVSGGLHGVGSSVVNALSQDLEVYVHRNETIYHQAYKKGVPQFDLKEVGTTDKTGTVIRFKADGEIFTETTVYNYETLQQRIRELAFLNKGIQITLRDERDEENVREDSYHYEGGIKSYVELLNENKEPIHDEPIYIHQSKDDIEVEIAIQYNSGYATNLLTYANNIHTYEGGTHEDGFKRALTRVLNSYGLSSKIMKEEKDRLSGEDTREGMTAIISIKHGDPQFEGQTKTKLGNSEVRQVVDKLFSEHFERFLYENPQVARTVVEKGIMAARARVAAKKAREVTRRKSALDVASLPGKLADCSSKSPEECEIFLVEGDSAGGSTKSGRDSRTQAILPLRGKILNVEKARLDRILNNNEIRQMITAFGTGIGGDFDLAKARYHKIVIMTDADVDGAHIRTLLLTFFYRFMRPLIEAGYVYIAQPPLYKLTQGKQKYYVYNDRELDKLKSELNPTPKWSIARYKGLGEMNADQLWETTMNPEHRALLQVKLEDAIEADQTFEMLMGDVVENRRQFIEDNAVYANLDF
Sequence of DNA gyrase (P20831 whole entry): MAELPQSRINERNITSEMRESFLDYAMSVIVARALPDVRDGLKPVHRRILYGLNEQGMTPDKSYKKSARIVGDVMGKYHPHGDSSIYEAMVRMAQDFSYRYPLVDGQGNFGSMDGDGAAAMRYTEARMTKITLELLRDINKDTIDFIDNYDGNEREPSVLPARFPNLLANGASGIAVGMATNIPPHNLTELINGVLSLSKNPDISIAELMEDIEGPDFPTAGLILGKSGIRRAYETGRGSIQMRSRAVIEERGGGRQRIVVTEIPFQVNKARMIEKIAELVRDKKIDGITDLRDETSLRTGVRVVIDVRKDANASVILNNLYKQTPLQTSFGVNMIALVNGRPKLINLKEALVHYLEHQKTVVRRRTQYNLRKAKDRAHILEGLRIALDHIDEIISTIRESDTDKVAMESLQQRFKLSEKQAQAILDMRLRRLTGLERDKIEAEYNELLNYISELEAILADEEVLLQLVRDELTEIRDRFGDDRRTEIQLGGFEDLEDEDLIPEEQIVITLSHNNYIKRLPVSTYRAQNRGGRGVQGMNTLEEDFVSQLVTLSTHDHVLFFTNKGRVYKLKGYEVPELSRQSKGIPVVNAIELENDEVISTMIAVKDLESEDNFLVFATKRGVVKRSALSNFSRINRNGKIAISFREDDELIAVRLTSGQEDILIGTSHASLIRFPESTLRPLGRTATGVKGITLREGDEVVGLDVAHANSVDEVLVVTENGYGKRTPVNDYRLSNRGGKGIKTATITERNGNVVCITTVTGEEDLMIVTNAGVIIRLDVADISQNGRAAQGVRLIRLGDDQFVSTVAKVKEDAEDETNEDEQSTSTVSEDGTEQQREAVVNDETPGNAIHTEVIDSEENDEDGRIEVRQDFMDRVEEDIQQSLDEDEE

What is called MIC is the lowest concentration found to suppress growth. In the case of `CC(=O)NC(=S)NNC(=O)c1ccc(-c2ccccc2)cc1`, the MIC in data set [1] was 1.56 µg/mL.

Take `CCCCCOc1ccc(C(=O)NNC(=S)NC(=O)CCC)cc1`: in data set [1], the MIC stood at 12.5 µg/mL.

For `CCCCCCCCCCCOc1ccc(C(=O)NNC(=S)NC(C)=O)cc1`, the MIC in data set [1] turned out to be 100 µg/mL.

`CCCCCOc1ccc(C(=O)NNC(=S)NC(=O)C(C)C)cc1`: the minimum inhibitory concentration (MIC) in data set [1] amounted to 12.5 µg/mL.

`CCCCCOc1ccc(C(=O)NNC(=S)NC(=O)C2CC2)cc1`: the minimum inhibitory concentration (MIC) in data set [1] is 6.25 µg/mL.

In general, CC50 refers to the concentration that lowers cell viability or growth by half. In general, IC50 refers to the concentration that inhibits the measured activity by half. As for `CCC1CCC(c2ccc(C(=O)NNC(=S)NC(C)=O)cc2)CC1` (stereo not given), the MIC in data set [1] was 0.58 µM. For the same molecule, the 50% cytotoxic concentration (CC50) at 48 h in data set [2] was determined as 26 nM; in data set [3], 67 nM. Also, the selectivity ratio in data set [4] amounted to 0.05; in data set [5], 0.12. Moreover, in data set [6], the IC50 came out at 230 nM.

With `CCCCCCOc1ccc(CNNC(=S)NCC)cc1`, the MIC in data set [1] is over 100 µg/mL.

In the case of `CCCCCOc1ccc(C(=O)NNC(=S)NC(C)=O)nc1`, the MIC in data set [1] is 25 µg/mL.

In the case of `CCCCCOc1ccc(C(=O)NNC(=S)NC(=O)c2ccc(C(=O)O)cc2)cc1`, the minimum inhibitory concentration (MIC) in data set [1] was over 100 µg/mL.

On to `Cc1ccc(C(=O)NNC(=S)NC(=O)CC(C)C)cc1`, for which, in data set [1], the MIC worked out at 12.5 µg/mL.

In the case of `CCCCCOc1ccc(C(=O)NNC(=S)NC(C)=O)c(OCCCCC)c1`, in data set [1], the minimal inhibitory concentration (MIC) was over 100 µg/mL.

As to `CC(=O)O[C@H]1C(=O)[C@@]2(C)[C@H]([C@H](OC(=O)c3ccccc3)[C@]3(O)C[C@H](OC(=O)[C@H](O)[C@@H](NC(=O)c4ccccc4)c4ccccc4)C(C)=C1C3(C)C)[C@]1(OC(C)=O)CO[C@@H]1C[C@@H]2O` [PACLITAXEL], the results for the cytotoxic concentration (CC50) at 48 h in data set [2] and in data set [3] were 10 nM and 16 nM, respectively.

For `CCC(=O)NC(=S)NNC(=O)c1ccc(OC)cc1`, the MIC in data set [1] stood at 25 µg/mL.

For `CCCOc1ccc(C(=O)NNC(=S)NC(C)=O)cc1`, the MIC in data set [1] worked out at 6.25 µg/mL.

Turning to `CC(=O)NC(=S)NNC(=O)c1ccc(C2CCCCC2)cc1`, in data set [1], the MIC turned out to be 1.22 µM. Moreover, the CC50 at 48 h amounted to 120 nM in data set [2] and 790 nM in data set [3]. For the same molecule, the selectivity ratio in data set [4] turned out to be 0.1; in data set [5] it was 0.65. Further, the IC50 in data set [6] came out at 1890 nM.

Take `CCCCCOc1ccc(CCC(=O)NNC(=S)NC(C)=O)cc1`: the MIC in data set [1] is over 100 µg/mL.

Turning to `CC(=O)NC(=S)NNC(=O)c1ccc(O)c(O)c1`, in data set [1], the MIC was found to be 100 µg/mL.

Take `CCCCCOc1ccc(C(=O)NNC(=S)NC(=O)C2CCCC2)cc1`: in data set [1], the MIC came out at 50 µg/mL.

`CCCCCCOc1ccc(C(=O)NNC(=O)NC(C)=O)cc1`: the MIC in data set [1] came to 100 µg/mL.

As to `CCC(=O)NC(=S)NNC(=O)c1ccccc1O`, the minimal inhibitory concentration (MIC) in data set [1] was 50 µg/mL.

With `COCCCOc1ccc(C(=O)NNC(=S)NC(C)=O)cc1`, the MIC in data set [1] is over 100 µg/mL.

Turning to `CCCCCOc1ccc(C(=O)NNC(=S)NC(=O)CCC(=O)OC)cc1`, the MIC in data set [1] stood at 12.5 µg/mL.

Regarding `CCCCOc1ccc(C(=O)NNC(=S)NC(C)=O)cc1`, the MIC in data set [1] came to 1.56 µg/mL.

Turning to `CC(=O)NC(=S)NNC(=O)c1ccccc1O`, the minimum inhibitory concentration (MIC) in data set [1] stood at 50 µg/mL.

Consider `CC(=O)NC(=S)NNC(=O)c1ccc(C2CC2)cc1`, for which the MIC in data set [1] was 3.12 µg/mL.

Turning to `CC(=O)NC(=S)NNC(=O)c1ccc(N2CCOCC2)cc1`, the MIC in data set [1] is 100 µg/mL.

With `CCCCCOc1cccc(C(=O)NNC(=S)NC(C)=O)c1`, the minimum inhibitory concentration (MIC) in data set [1] is over 100 µg/mL.

Take `CC(=O)NC(=S)NNC(=O)c1ccc(Oc2ccccc2)cc1`: in data set [1], the MIC amounted to 3.12 µg/mL.

With `CCCCCCOc1ccc(C(=O)NNC(=S)NC(C)=O)cc1`, the minimum inhibitory concentration (MIC) in data set [1] stood at 1.56 µg/mL. For the same molecule, in data set [6], the concentration for half-maximal inhibition (IC50) was 1010 nM.

For the molecule `CCCCCOc1ccc(C(=O)NC(=S)NNC(C)=O)cc1`, in data set [1], the minimal inhibitory concentration (MIC) is 3.12 µg/mL.

As to `CCCCCOc1ccc(C(=O)NNC(=S)NC(C)=O)cc1OCCCCC`, in data set [1], the MIC turned out to be 6.25 µg/mL.

Regarding `CCCCCOc1ccc(C(=O)NNC(=S)NC(C)=O)cc1O`, the minimal inhibitory concentration (MIC) in data set [1] came to 25 µg/mL.

As for `CC(=O)NC(=S)NNC(=O)c1ccc2ccccc2c1`, in data set [1], the MIC was 6.25 µg/mL.

With `CCCCCOc1ccc(C(=O)NNC(=S)NC(=O)CCC(=O)O)cc1`, the minimal inhibitory concentration (MIC) in data set [1] was found to be 50 µg/mL.

Turning to `CCCCCOc1ccc(C(=O)NNC(=S)NC(C)=O)c(C)c1`, in data set [1], the MIC turned out to be 3.12 µg/mL.

`CCCCCCOc1ccc(C(=O)N(C)NC(=S)NC(C)=O)cc1`: the minimal inhibitory concentration (MIC) in data set [1] was over 100 µg/mL.

As for `CC(=O)NC(=S)NNC(=O)c1ccc([N+](=O)[O-])cc1`, the MIC in data set [1] was over 100 µg/mL.

In the case of `CCCCCOc1ccc(C(=O)NNC(=S)NC(=O)c2ccc(C(=O)OC)cc2)cc1`, the MIC in data set [1] was over 100 µg/mL.

`CCCCCOc1ccc(C(=O)NNC(=S)NC(=O)c2cccs2)cc1`: the minimal inhibitory concentration (MIC) in data set [1] was determined as 3.12 µg/mL.

In the case of `CC(=O)NC(=S)NNC(=O)c1ccc(OC2CCCCC2)cc1`, the MIC in data set [1] was found to be 1.56 µg/mL.

Regarding `CCCCCCOc1ccc(C(=O)NN(C)C(=S)NC(C)=O)cc1`, the MIC in data set [1] was over 100 µg/mL.

On to `CCCCCOc1ccc(C(=O)NNC(=S)NS(C)(=O)=O)cc1`, for which the MIC in data set [1] is over 100 µg/mL.

Turning to `CCCCCCOc1ccc(-c2nnc(NC(C)=O)o2)cc1`, in data set [1], the MIC was over 100 µg/mL.

As for `CC(=O)NC(=S)NNC(=O)c1ccccc1`, the MIC in data set [1] is 50 µg/mL.

As for `CCCCCOc1ccc(C(=O)NNC(=S)NC(=O)CC)cc1`, the MIC in data set [1] came out at 1.56 µg/mL.

Take `CCCCCCOc1ccc(C(=O)NNC(N)=S)cc1`: the MIC in data set [1] was over 100 µg/mL.

`CCCCCCOc1ccc(-c2nnc(NC(C)=O)s2)cc1`: in data set [1], the MIC was over 100 µg/mL.

As to `CCCCCOc1ccc(C(=O)NNC(=S)NC(=O)Cc2ccccc2)cc1`, the MIC in data set [1] is over 100 µg/mL.

For the molecule `CCC(=O)NC(=S)NNC(=O)c1ccccc1`, the MIC in data set [1] came out at 50 µg/mL.

For the molecule `CC(=O)NC(=S)NNC(=O)c1ccc(OCCCC(C)C)cc1`, the minimal inhibitory concentration (MIC) in data set [1] came to 3.12 µg/mL.

With `CC(=O)NC(=S)NNC(=O)c1cccc(-c2ccccc2)c1`, the minimal inhibitory concentration (MIC) in data set [1] came to 3.12 µg/mL.

`CCCCCCOc1ccc(C(=O)NNC(=S)NCC)cc1`: the MIC in data set [1] is over 100 µg/mL.

`CCCCCOc1ccc(CC(=O)NNC(=S)NC(C)=O)cc1`: the MIC in data set [1] turned out to be 25 µg/mL.

The values above are taken from ChEMBL document CHEMBL6083234, “Discovery of novel 1,4-dicarbonylthiosemicarbazides as DNA gyrase inhibitors for the treatment of MRSA infection” (Eur J Med Chem, 2024).
